According to article PMC7344947, “Phytochemicals and Enzyme Inhibitory Capacities of the Methanolic Extracts from the Italian Apple Cultivar Mela Rosa dei Monti Sibillini” (Pharmaceuticals, 2020):

Molecular target: T1, α-Glucosidase from Saccharomyces cerevisiae (Saccharomyces cerevisiae, UniProt P53341)
T1 construct: purchased Sigma-Aldrich (Madrid, Spain)
Experiment: α-Glucosidase inhibition assay (pNPG, absorbance 405 nm)
Type: biochemical
Settings: 1 mg/mL
Experimental: α-Glucosidase inhibition assay was performed following the previous method. Each 96-well microplate contained: 50 μL apple extract or the reference at different concentration and 100 μL of α-GLU (1U/mL) in phosphate buffer (pH 6.9). After 10 min, 50 μL of PNPG (50 μL) were added and incubated for 20 min at 37 °C. The absorbance was read at 405 nm. The percentage inhibition of α-glucosidase was calculated using the following formula:% inhibition = [(Abscontrol − AbsSample)/Abscontrol] × 100(1)

T1 sequence (P53341 whole entry): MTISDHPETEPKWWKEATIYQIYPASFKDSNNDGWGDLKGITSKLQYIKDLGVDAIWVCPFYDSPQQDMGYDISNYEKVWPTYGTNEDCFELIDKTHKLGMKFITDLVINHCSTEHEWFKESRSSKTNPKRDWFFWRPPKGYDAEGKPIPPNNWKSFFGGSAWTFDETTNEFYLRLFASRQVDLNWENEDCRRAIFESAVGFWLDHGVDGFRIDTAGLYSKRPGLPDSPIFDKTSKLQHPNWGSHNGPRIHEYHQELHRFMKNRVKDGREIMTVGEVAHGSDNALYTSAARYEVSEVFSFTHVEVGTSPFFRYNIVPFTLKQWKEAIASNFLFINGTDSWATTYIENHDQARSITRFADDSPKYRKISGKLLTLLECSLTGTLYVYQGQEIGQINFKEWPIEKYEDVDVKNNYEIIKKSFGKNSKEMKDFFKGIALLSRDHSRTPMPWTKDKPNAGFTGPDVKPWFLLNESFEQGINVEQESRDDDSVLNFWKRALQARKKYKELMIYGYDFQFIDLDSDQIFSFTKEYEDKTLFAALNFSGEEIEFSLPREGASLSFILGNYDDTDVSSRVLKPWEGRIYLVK

## C[C@H]1O[C@H](O[C@H]2[C@H](O)[C@@H](O)[C@@H](O[C@H]3[C@H](O)[C@@H](O)C(O)O[C@@H]3CO)O[C@@H]2CO)[C@H](O)[C@@H](O)[C@@H]1N[C@H]1C=C(CO)[C@@H](O)[C@H](O)[C@H]1O (stereo partly shown) [Acarbose]
  inhibition at 1000 µg/mL: 100%
